Consider one molecule from US20070010518A1, “Method for administering levosimendan” (priority 2005, published 2007).

Structures are written as SMILES.

What all share (format): in vivo, human
The test system of test [1] is patients with New York Heart Association functional class II to III heart failure. Kind of test: Invasive hemodynamic assessments in double-blind, placebo-controlled study. The protocol: (§1) A double-blind, placebo-controlled, parallel group, single center study in patients with New York Heart Association functional class II to III heart failure was conducted. Patients were randomised in 1:1 ratio to receive either levosimendan or placebo. Study drug administration was initiated with a loading dose of 12 μg/kg of levosimendan or placebo delivered over 10 minutes. This was followed by a continuous infusion of 0.1 μg/kg/min for 50 minutes. If the dose was well tolerated the infusion rate was increased to 0.2 μg/kg/min for a further 23 hours. After the study drug was started, the hemodynamic assessments were repeated at 30 minutes, at two and six hours. The non-invasive hemodynamic assessments were repeated at 24-hours. Follow-up visits took place at 2, 3, 5, 7, 9 and 14 days from the beginning of the study. On these visits echocardiographic measurements were performed and blood pressure and heart rate were measured.

For test [2] the test system is unchanged. The test can be described thus: Doppler echocardiographic hemodynamic measurements in double-blind, placebo-controlled study. The protocol:
as §1
An Acuson Sequoia ultrasound system with 2.5-3.75 MHz probes was used for the Doppler echocardiographic measurements. Blood flow velocity curves were recorded at a sweep speed of 100 mm/s. Left ventricular ejection fraction was assessed by two-dimensional apical two- and four-chamber views with use of modified Simpson rule. Mitral flow velocity was assessed by pulsed wave Doppler from the apical four-chamber view by placing a 3-mm sample volume between the tip of the mitral leaflets in diastole. The following measurements were made over five consecutive cycles: maximal early and maximal late diastolic velocity and their ratio, duration of the late diastolic velocity wave, deceleration time and deceleration rate of early diastolic velocity. Peak velocities were defined as the highest point of the spectrum.

The test system is the same in test [3]. The test can be described thus: Plasma natriuretic peptide (NT-proANP, NT-proBNP) measurements in double-blind, placebo-controlled study. The protocol: as §1
Blood samples (4 ml) for natriuretic peptide (NT-proANP, NT-proBNP) measurements were taken into pre-cooled EDTA tubes. Samples were taken at baseline (0-sample) and on the first study day 30 min, 2 h, 6h and 24 h after the start of the infusion and in the mornings of days 2, 3, 5, 7, 9 and 14 after the start of the study drug infusion.

[4] abbreviates: after starting the 24-hour infusion.
Where [5] appears, read: echocardiography, 24-hour infusion.
[6] abbreviates: after start of 24-hour infusion.

Consider `C[C@@H]1CC(=O)NN=C1c1ccc(NN=C(C#N)C#N)cc1` [levosimendan, (−)-enantiomer of [[4-(1,4,5,6-tetrahydro-4-methyl-6-oxo-3-pyridazinyl)phenyl]hydrazono]propanedinitrile], for which, in test [1] (at six hours, loading dose 12 μg/kg, then infusion 0.1-0.2 μg/kg/min), the “Invasively measured cardiac output (CO)” value amounted to 5.4 L/min. For the same molecule, the “Invasively measured cardiac output (CO)” value in test [1] (baseline, levosimendan group) was 4.3 L/min. Besides, the PCWP in test [1] (baseline, levosimendan treatment) worked out at 20 mmHg. The PCWP in test [1] (in response to levosimendan treatment, loading dose 12 μg/kg, then infusion 0.1-0.2 μg/kg/min) is 15 mmHg. Also, in test [2] (after levosimendan administration (24-hour infusion)), the “Maintenance of beneficial hemodynamic and neurohormonal effects” value was “maintained up to two weeks”. Further, in test [2] (setting [4]), the “Time at which echocardiographically estimated PCWP reached its lowest value” was 2 days and the “Time of maximal effects on hemodynamic parameters” value lay within 1 to 3 days. In addition, in test [2] (setting [5]), the “Linearly estimated duration of an increase in CO” value is on record as 13 days and the “Linearly estimated duration of the decrease in PCWP” value was 9 days. The “Time at which highest CO value estimated by echocardiography was detected” value in test [2] (end of the 24-hour infusion) was 24 h. Also, in test [3] (24-hour infusion), the “Duration of treatment effect on plasma NT-proANP estimated by a linear model” value is on record as 16 days and the “Duration of treatment effect on plasma NT-proBNP estimated by a linear model” value was 12 days. Also, in test [3] (setting [6]), the “Day at which plasma NT-proANP level reached its lowest value” was 3 days and the “Day at which plasma NT-proBNP level reached its lowest value” is on record as 2 days.
